Source: ChEMBL document CHEMBL2390950, “Dieckol, a SARS-CoV 3CL(pro) inhibitor, isolated from the edible brown algae Ecklonia cava” (Bioorg Med Chem, 2013)
Active and inactive are the calls of the source. The rule behind the calls is not given here.

Experiments:
[1] = target: Replicase polyprotein 1ab (Severe acute respiratory syndrome-related coronavirus) (UniProt P0C6X7)
[2] = target: Replicase polyprotein 1ab (Severe acute respiratory syndrome-related coronavirus) (UniProt P0C6X7); remark: listed apart in the source
[3] = target: T1, Replicase polyprotein 1ab (Severe acute respiratory syndrome-related coronavirus, UniProt P0C6X7)
[4] = Selectivity index, ratio of CC50 for african green monkey Vero cells to IC50 for SARS coronavirus 3C-like protease cis-cleavage activity transfected in african green monkey Vero cells; assay type: functional
[5] = system: Vero; experiment: (§1) Cytotoxicity against african green monkey Vero cells assessed as cell death by MTT assay; assay type: cell-based; conditions: chlorocebus sabaeus, vero
[6] = target: T1, Replicase polyprotein 1ab; remark: listed apart in the source
[7] = target: Replicase polyprotein 1ab (Severe acute respiratory syndrome-related coronavirus) (UniProt P0C6X7); experiment: (§2) Inhibition of SARS coronavirus 3C-like protease cis-cleavage activity transfected in african green monkey Vero cells using SAVLQSGFRK as substrate after 5 hrs by luciferase reporter gene assay; assay type: cell-based
[8] = target: T1, Replicase polyprotein 1ab; experiment: as §2; assay type: cell-based
[9] = target: Replicase polyprotein 1ab (Severe acute respiratory syndrome-related coronavirus) (UniProt P0C6X7); experiment: Inhibition of SARS coronavirus 3C-like protease cis-cleavage activity transfected in african green monkey Vero cells using SAVLQSGFRK as substrate at 200 uM after 5 hrs by luciferase reporter gene assay relative to control; assay type: cell-based
[10] = as §1; assay type: cell-based; conditions: chlorocebus sabaeus, Vero cells
[11] = target: T1, Replicase polyprotein 1ab; experiment: (§3) Binding affinity to SARS coronavirus 3C-like protease by SPR analysis
[12] = target: Replicase polyprotein 1ab (Severe acute respiratory syndrome-related coronavirus) (UniProt P0C6X7); remark: listed apart in the source
[13] = target: Replicase polyprotein 1ab (Severe acute respiratory syndrome-related coronavirus) (UniProt P0C6X7); remark: listed apart in the source
[14] = target: Replicase polyprotein 1ab (Severe acute respiratory syndrome-related coronavirus) (UniProt P0C6X7); experiment: as §3
[15] = target: Replicase polyprotein 1ab (Severe acute respiratory syndrome-related coronavirus) (UniProt P0C6X7); remark: listed apart in the source

Structure (SMILES) | inhibition [1] | inhibition [2] | IC50 [3] | Ratio CC50/IC50 [4] | CC50 [5] | Ki [6] | inhibition [7] | IC50 [8] | inhibition [9] | CC50 [10] | Kd [11] | Ratio IC50 [12] | Ratio IC50 [13] | Activity [14] | Ratio IC50 [15]
Oc1cc(O)c(Oc2cc(O)cc(O)c2Oc2cc(O)cc(O)c2-c2c(O)cc(O)cc2O)c(O)c1 [FUCODIPHLOROETHOL G] | Active | Dose-dependent effect | 22.5 µM | >1.1 | > 200 µM | 63.5 µM | Dose-dependent effect | 177 µM | – | – | – | – | – | – | –
Oc1cc(O)cc(Oc2c(O)cc(Oc3c(O)cc(O)cc3O)cc2O)c1 [TRIPHLORETHOL A] | – | Dose-dependent effect | – | <1 | – | – | – | – | 15% | > 200 µM | – | – | – | – | –
Oc1cc(O)cc(Oc2c(O)cc(O)c3c2Oc2c(O)cc(O)cc2O3)c1 [ECKOL] | Active | Dose-dependent effect | 8.8 µM | <1 | > 200 µM | 8.2 µM | – | – | 30% | – | – | – | – | – | –
COc1ccc([C@@H]2CC(=O)c3c(O)cc(O)cc3O2)cc1O [HESPERETIN] | – | – | – | – | – | – | – | – | – | – | 24.5 µM | – | – | – | –
Oc1cc(O)cc(O)c1 [PHLOROGLUCINOL] | – | – | > 200 µM | – | > 200 µM | – | – | – | – | – | – | – | – | – | –
Oc1cc(O)cc(Oc2c(O)cc(O)c3c2Oc2c(O)cc(Oc4c(O)cc(O)cc4O)cc2O3)c1 | Active | Dose-dependent effect | 42.1 µM | >1.8 | > 200 µM | 19.3 µM | Dose-dependent effect | 112 µM | – | – | – | – | – | – | –
Oc1cc(O)cc(Oc2c(Oc3c(O)cc(O)cc3O)cc(O)c3c2Oc2c(O)cc(O)cc2O3)c1 [2-PHLOROECKOL] | Active | Dose-dependent effect | 13.3 µM | >1.8 | > 200 µM | 24 µM | Dose-dependent effect | 112 µM | – | – | – | – | – | – | –
Oc1cc(O)cc(Oc2c(O)cc(O)c3c2Oc2c(O)cc4oc5c(Oc6cc(O)cc(O)c6)c(O)cc(O)c5c4c2O3)c1 [PHLOROFUCOFUROECKOL A] | Active | Dose-dependent effect | 16.7 µM | >1.1 | > 200 µM | 10.6 µM | Dose-dependent effect | 175 µM | – | – | – | – | – | – | –
Oc1cc(O)c2oc3cc(O)c4oc5cc(O)cc(O)c5oc4c3oc2c1 [DIOXINODEHYDROECKOL] | – | Dose-dependent effect | 158 µM | >1.4 | > 200 µM | – | Dose-dependent effect | 146 µM | – | – | – | – | – | – | –
Oc1cc(O)cc(Oc2c(O)cc(O)c3c2Oc2c(O)cc(Oc4c(O)cc(Oc5c(O)cc(O)c6c5Oc5c(O)cc(O)cc5O6)cc4O)cc2O3)c1 [DIECKOL] | Active | Dose-dependent effect | 2.7 µM | >2.9 | > 200 µM | 2.4 µM | Dose-dependent effect | 68.1 µM | – | – | 10.3 µM | 50 | 60 | Dose-dependent effect | 30
